In PubChem BioAssay AID1918933 (Molecular Pharmacology Branch, DTP, NCI, 2023):

System: 186277-243-T-J2-PDC complex spheroid viability
Assay: Anticancer human tumor 186277-243-T-J2-PDC patient-derived colon adenocarcinoma cell line growth inhibition
Settings: for IC50: curve of first compound; for viability, T/C: stronger effect = lower value
How it was run: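 Complex spheroids of tumor cells with HUVEC and human MSCs, exposed to iadademstat combined with other agents. Each agent tested in half-log steps from near clinical Cmax (else 10 microM top), DMSO ≤0.25%.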

[1] = second compound 0.1 µM, first compound 0.0316 µM
[2] = second compound 0.1 µM, first compound 0.1 µM
[3] = second compound 0.316 µM, first compound 0.0316 µM
[4] = second compound 0.316 µM, first compound 0.1 µM
[5] = second compound 1 µM, first compound 0.0316 µM
[6] = second compound 1 µM, first compound 0.1 µM
[7] = second compound 3.16 µM, first compound 0.0316 µM
[8] = second compound 3.16 µM, first compound 0.1 µM
[9] = second compound 10 µM, first compound 0.0316 µM
[10] = second compound 10 µM, first compound 0.1 µM
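Further: 7 day exposure to compounds.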
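Wherever viability, T/C is given: 100% = DMSO vehicle control viability.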

## CC1(C)CCC(CN2CCN(c3ccc(C(=O)NS(=O)(=O)c4ccc(NCC5CCOCC5)c([N+](=O)[O-])c4)c(Oc4cnc5[nH]ccc5c4)c3)CC2)=C(c2ccc(Cl)cc2)C1 + NC1CC1c1ccc(-c2cccc(O)c2)cc1
Second compound 0.1 µM
  IC50: 2230 nM
Second compound 0.316 µM
  IC50: 2260 nM
Second compound 1 µM
  IC50: 2240 nM
Second compound 3.16 µM
  IC50: 2410 nM
Second compound 10 µM
  IC50: 2150 nM
[1]
  viability, T/C: 106%
[2]
  viability, T/C: 101%
Second compound 0.1 µM, first compound 0.316 µM
  viability, T/C: 117%
Second compound 0.1 µM, first compound 1 µM
  viability, T/C: 99.1%
Second compound 0.1 µM, first compound 3.16 µM
  viability, T/C: 28.4%
Second compound 0.1 µM, first compound 10 µM
  viability, T/C: 0.17%
[3]
  viability, T/C: 98.2%
[4]
  viability, T/C: 97.4%
Second compound 0.316 µM, first compound 0.316 µM
  viability, T/C: 108%
Second compound 0.316 µM, first compound 1 µM
  viability, T/C: 98.8%
Second compound 0.316 µM, first compound 3.16 µM
  viability, T/C: 29.9%
Second compound 0.316 µM, first compound 10 µM
  viability, T/C: 0.15%
[5]
  viability, T/C: 102%
[6]
  viability, T/C: 106%
Second compound 1 µM, first compound 0.316 µM
  viability, T/C: 98.5%
Second compound 1 µM, first compound 1 µM
  viability, T/C: 91.3%
Second compound 1 µM, first compound 3.16 µM
  viability, T/C: 32.6%
Second compound 1 µM, first compound 10 µM
  viability, T/C: 0.14%
[7]
  viability, T/C: 106%
[8]
  viability, T/C: 101%
Second compound 3.16 µM, first compound 0.316 µM
  viability, T/C: 107%
Second compound 3.16 µM, first compound 1 µM
  viability, T/C: 94.4%
Second compound 3.16 µM, first compound 3.16 µM
  viability, T/C: 36.4%
Second compound 3.16 µM, first compound 10 µM
  viability, T/C: 0.15%
[9]
  viability, T/C: 107%
[10]
  viability, T/C: 107%
Second compound 10 µM, first compound 0.316 µM
  viability, T/C: 101%
Second compound 10 µM, first compound 1 µM
  viability, T/C: 99.7%
Second compound 10 µM, first compound 3.16 µM
  viability, T/C: 25%
Second compound 10 µM, first compound 10 µM
  viability, T/C: 0.2%

## Cn1ncnc1C1c2n[nH]c(=O)c3cc(F)cc(c23)NC1c1ccc(F)cc1 (stereo not given) + NC1CC1c1ccc(-c2cccc(O)c2)cc1
Second compound 0.1 µM
  IC50: > 100 nM
Second compound 0.316 µM
  IC50: > 100 nM
Second compound 1 µM
  IC50: > 100 nM
Second compound 3.16 µM
  IC50: > 100 nM
Second compound 10 µM
  IC50: > 100 nM
Second compound 0.1 µM, first compound 0.000316 µM
  viability, T/C: 110%
Second compound 0.1 µM, first compound 0.001 µM
  viability, T/C: 109%
Second compound 0.1 µM, first compound 0.00316 µM
  viability, T/C: 112%
Second compound 0.1 µM, first compound 0.01 µM
  viability, T/C: 110%
[1]
  viability, T/C: 106%
[2]
  viability, T/C: 115%
Second compound 0.316 µM, first compound 0.000316 µM
  viability, T/C: 113%
Second compound 0.316 µM, first compound 0.001 µM
  viability, T/C: 110%
Second compound 0.316 µM, first compound 0.00316 µM
  viability, T/C: 93.8%
Second compound 0.316 µM, first compound 0.01 µM
  viability, T/C: 97.7%
[3]
  viability, T/C: 100%
[4]
  viability, T/C: 106%
Second compound 1 µM, first compound 0.000316 µM
  viability, T/C: 113%
Second compound 1 µM, first compound 0.001 µM
  viability, T/C: 114%
Second compound 1 µM, first compound 0.00316 µM
  viability, T/C: 120%
Second compound 1 µM, first compound 0.01 µM
  viability, T/C: 104%
[5]
  viability, T/C: 108%
[6]
  viability, T/C: 110%
Second compound 3.16 µM, first compound 0.000316 µM
  viability, T/C: 110%
Second compound 3.16 µM, first compound 0.001 µM
  viability, T/C: 115%
Second compound 3.16 µM, first compound 0.00316 µM
  viability, T/C: 112%
Second compound 3.16 µM, first compound 0.01 µM
  viability, T/C: 107%
[7]
  viability, T/C: 113%
[8]
  viability, T/C: 110%
Second compound 10 µM, first compound 0.000316 µM
  viability, T/C: 110%
Second compound 10 µM, first compound 0.001 µM
  viability, T/C: 106%
Second compound 10 µM, first compound 0.00316 µM
  viability, T/C: 127%
Second compound 10 µM, first compound 0.01 µM
  viability, T/C: 109%
[9]
  viability, T/C: 104%
[10]
  viability, T/C: 100%

## NS(=O)(=O)OCC1CC(n2ccc3c(NC4CCc5ccccc54)ncnc32)CC1O (stereo not given) + NC1CC1c1ccc(-c2cccc(O)c2)cc1
Second compound 0.1 µM
  IC50: 249 nM
Second compound 0.316 µM
  IC50: 303 nM
Second compound 1 µM
  IC50: 319 nM
Second compound 3.16 µM
  IC50: 397 nM
Second compound 10 µM
  IC50: 265 nM
Second compound 0.1 µM, first compound 0.00949 µM
  viability, T/C: 98.8%
Second compound 0.1 µM, first compound 0.03 µM
  viability, T/C: 89.8%
Second compound 0.1 µM, first compound 0.0949 µM
  viability, T/C: 76.8%
Second compound 0.1 µM, first compound 0.3 µM
  viability, T/C: 47.3%
Second compound 0.1 µM, first compound 0.949 µM
  viability, T/C: 11%
Second compound 0.1 µM, first compound 3 µM
  viability, T/C: 4.48%
Second compound 0.316 µM, first compound 0.00949 µM
  viability, T/C: 104%
Second compound 0.316 µM, first compound 0.03 µM
  viability, T/C: 101%
Second compound 0.316 µM, first compound 0.0949 µM
  viability, T/C: 82.3%
Second compound 0.316 µM, first compound 0.3 µM
  viability, T/C: 53.9%
Second compound 0.316 µM, first compound 0.949 µM
  viability, T/C: 11.7%
Second compound 0.316 µM, first compound 3 µM
  viability, T/C: 3.87%
Second compound 1 µM, first compound 0.00949 µM
  viability, T/C: 116%
Second compound 1 µM, first compound 0.03 µM
  viability, T/C: 96.8%
Second compound 1 µM, first compound 0.0949 µM
  viability, T/C: 85.1%
Second compound 1 µM, first compound 0.3 µM
  viability, T/C: 55.9%
Second compound 1 µM, first compound 0.949 µM
  viability, T/C: 14.4%
Second compound 1 µM, first compound 3 µM
  viability, T/C: 4.26%
Second compound 3.16 µM, first compound 0.00949 µM
  viability, T/C: 116%
Second compound 3.16 µM, first compound 0.03 µM
  viability, T/C: 98.2%
Second compound 3.16 µM, first compound 0.0949 µM
  viability, T/C: 84.4%
Second compound 3.16 µM, first compound 0.3 µM
  viability, T/C: 69%
Second compound 3.16 µM, first compound 0.949 µM
  viability, T/C: 12.8%
Second compound 3.16 µM, first compound 3 µM
  viability, T/C: 3.82%
Second compound 10 µM, first compound 0.00949 µM
  viability, T/C: 107%
Second compound 10 µM, first compound 0.03 µM
  viability, T/C: 90.6%
Second compound 10 µM, first compound 0.0949 µM
  viability, T/C: 73.4%
Second compound 10 µM, first compound 0.3 µM
  viability, T/C: 52.8%
Second compound 10 µM, first compound 0.949 µM
  viability, T/C: 14%
Second compound 10 µM, first compound 3 µM
  viability, T/C: 3.25%
